Among the data in ChEMBL document CHEMBL5303765, “Data for DCP probe BAY-7081” (2023) are inhibition, delta Tm Staurosporine positive control and ΔTm values, retold here.

The target in test [1] is Delta-type opioid receptor (Homo sapiens) (UniProt P41143). Particulars: Compound concentration 10.0 uM.
Test [2] concerns the target D(3) dopamine receptor (Homo sapiens) (UniProt P35462). Conditions: Compound concentration 10.0 uM.
Test [3] addresses T1, 5-hydroxytryptamine receptor 3A (Homo sapiens) (UniProt P46098).
T1 sequence (whole entry): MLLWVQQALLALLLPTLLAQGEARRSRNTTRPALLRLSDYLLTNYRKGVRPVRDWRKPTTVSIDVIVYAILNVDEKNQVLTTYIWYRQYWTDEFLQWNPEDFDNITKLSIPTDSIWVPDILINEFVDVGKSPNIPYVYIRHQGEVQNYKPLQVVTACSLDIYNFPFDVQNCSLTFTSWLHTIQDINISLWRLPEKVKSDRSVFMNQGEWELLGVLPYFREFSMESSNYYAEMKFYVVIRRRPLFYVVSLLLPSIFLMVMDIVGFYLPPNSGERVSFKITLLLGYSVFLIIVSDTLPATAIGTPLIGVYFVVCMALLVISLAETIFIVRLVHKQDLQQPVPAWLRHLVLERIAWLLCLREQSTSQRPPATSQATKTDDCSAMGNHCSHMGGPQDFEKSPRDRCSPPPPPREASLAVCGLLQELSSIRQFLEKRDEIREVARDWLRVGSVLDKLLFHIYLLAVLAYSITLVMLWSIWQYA
Conditions: Compound concentration 10.0 uM.

For test [4], the target named is T2, MAP/microtubule affinity-regulating kinase 4 (Homo sapiens) (UniProt Q96L34).
T2 sequence (whole entry): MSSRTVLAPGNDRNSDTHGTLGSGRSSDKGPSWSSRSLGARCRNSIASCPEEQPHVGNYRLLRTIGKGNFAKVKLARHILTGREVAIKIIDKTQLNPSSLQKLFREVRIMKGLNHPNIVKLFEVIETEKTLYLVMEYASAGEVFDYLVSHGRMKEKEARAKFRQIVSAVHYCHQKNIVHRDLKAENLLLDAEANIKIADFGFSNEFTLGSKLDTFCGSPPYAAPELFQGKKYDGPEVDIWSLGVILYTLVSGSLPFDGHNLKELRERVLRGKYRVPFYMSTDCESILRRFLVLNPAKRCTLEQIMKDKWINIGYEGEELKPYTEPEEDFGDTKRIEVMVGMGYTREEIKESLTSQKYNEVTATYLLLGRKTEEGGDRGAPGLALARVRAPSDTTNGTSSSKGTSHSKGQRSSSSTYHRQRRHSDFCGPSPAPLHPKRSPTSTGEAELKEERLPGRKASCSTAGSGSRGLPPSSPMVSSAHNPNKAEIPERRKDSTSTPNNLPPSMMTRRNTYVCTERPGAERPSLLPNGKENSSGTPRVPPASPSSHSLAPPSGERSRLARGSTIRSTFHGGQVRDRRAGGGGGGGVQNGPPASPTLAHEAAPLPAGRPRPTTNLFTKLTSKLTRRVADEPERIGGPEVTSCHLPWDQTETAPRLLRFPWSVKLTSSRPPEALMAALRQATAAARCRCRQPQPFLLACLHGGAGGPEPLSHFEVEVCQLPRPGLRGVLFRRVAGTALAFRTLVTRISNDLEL
The test is described as follows: MARK4 SGC Tm panel (DSF). Particulars: for ΔTm: Compound concentration 10.0 uM.

Test [5] deals with Tyrosine-protein kinase ABL1 (Homo sapiens) (UniProt P00519). The test is described as follows: ABL1 SGC Tm panel (DSF). Conditions: for ΔTm: Compound concentration 10.0 uM.
Test [6] has as its target D(1A) dopamine receptor (Homo sapiens) (UniProt P21728). Conditions: Compound concentration 10.0 uM.
Test [7] addresses Sodium-dependent serotonin transporter (Homo sapiens) (UniProt P31645). Particulars: Compound concentration 10.0 uM.
The target of test [8] is MAP/microtubule affinity-regulating kinase 3 (Homo sapiens) (UniProt P27448). Nature of the test: MARK3 SGC Tm panel (DSF). Conditions: for ΔTm: Compound concentration 10.0 uM.
Test [9] concerns the target Ephrin type-A receptor 7 (Homo sapiens) (UniProt Q15375). The test is described as follows: EPHA7 SGC Tm panel (DSF). Particulars: for ΔTm: Compound concentration 10.0 uM.
In test [10] the target is T3, Ephrin type-B receptor 1 (Homo sapiens) (UniProt P54762).
T3 sequence (whole entry): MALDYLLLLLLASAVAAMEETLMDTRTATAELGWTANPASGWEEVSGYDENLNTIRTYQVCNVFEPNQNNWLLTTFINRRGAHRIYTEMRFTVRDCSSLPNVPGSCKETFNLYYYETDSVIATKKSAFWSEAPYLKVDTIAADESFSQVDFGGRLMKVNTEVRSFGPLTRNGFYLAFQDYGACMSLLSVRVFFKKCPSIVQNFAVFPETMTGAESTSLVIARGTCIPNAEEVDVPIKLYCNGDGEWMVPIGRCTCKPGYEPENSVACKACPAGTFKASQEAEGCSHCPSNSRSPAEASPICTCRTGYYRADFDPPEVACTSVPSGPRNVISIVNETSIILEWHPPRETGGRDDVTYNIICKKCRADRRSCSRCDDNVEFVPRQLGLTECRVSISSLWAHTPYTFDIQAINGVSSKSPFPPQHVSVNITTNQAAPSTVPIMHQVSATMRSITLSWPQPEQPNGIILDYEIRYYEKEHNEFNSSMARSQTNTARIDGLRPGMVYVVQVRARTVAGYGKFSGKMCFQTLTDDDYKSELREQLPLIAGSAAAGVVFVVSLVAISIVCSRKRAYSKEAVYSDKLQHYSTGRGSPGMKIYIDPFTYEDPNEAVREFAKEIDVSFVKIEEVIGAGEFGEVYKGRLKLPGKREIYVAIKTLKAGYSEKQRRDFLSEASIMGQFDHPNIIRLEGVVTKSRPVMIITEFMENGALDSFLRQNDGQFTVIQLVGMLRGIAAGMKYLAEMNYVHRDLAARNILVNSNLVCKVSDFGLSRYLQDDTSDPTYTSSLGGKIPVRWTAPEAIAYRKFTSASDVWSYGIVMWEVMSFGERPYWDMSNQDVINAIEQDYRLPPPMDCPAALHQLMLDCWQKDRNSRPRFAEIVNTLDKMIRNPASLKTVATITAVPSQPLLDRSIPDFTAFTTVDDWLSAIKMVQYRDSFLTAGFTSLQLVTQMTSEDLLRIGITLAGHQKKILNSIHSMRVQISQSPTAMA
Nature of the test: EPHB1 SGC Tm panel (DSF). Particulars: for ΔTm: Compound concentration 10.0 uM.

The target of test [11] is Tyrosine-protein kinase Fes/Fps (Homo sapiens) (UniProt P07332). The test is described as follows: FES SGC Tm panel (DSF). Particulars: for ΔTm: Compound concentration 10.0 uM.
Chain of Tyrosine-protein kinase Fes/Fps (Homo sapiens) (P07332 whole entry): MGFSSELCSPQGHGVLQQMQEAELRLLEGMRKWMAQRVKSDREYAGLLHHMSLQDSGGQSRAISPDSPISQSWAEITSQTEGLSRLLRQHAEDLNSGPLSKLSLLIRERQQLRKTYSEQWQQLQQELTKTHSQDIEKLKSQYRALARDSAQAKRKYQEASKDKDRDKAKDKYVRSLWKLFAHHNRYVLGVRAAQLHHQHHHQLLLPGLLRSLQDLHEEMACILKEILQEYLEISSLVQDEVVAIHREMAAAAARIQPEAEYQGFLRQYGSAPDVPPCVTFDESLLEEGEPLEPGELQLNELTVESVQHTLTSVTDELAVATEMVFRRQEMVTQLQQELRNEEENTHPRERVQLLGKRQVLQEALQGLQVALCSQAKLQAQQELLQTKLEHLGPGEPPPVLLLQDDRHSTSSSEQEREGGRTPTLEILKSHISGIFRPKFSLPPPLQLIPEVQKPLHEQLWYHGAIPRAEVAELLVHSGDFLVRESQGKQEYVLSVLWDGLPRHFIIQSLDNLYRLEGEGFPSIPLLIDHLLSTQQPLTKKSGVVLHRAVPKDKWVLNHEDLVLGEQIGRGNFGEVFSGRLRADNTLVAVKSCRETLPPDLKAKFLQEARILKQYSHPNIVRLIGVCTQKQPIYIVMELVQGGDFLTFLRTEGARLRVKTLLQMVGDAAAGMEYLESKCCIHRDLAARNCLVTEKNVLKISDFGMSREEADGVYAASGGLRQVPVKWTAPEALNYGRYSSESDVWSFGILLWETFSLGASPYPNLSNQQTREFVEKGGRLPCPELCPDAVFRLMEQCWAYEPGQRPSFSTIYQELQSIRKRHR

Chain of D(1A) dopamine receptor (Homo sapiens) (P21728 whole entry): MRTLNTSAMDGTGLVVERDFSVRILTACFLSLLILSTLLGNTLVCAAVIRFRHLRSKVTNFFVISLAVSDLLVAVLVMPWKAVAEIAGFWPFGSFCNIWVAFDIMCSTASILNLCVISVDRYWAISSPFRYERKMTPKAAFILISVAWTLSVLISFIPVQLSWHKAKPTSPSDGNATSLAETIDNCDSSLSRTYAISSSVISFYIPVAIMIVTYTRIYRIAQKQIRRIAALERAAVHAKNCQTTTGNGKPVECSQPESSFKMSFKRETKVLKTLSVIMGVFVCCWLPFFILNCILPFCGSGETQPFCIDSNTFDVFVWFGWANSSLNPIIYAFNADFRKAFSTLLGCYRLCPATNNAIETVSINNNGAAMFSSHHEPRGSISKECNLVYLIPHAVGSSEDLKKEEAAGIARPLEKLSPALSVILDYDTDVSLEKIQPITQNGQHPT
Chain of Tyrosine-protein kinase ABL1 (Homo sapiens) (P00519 whole entry): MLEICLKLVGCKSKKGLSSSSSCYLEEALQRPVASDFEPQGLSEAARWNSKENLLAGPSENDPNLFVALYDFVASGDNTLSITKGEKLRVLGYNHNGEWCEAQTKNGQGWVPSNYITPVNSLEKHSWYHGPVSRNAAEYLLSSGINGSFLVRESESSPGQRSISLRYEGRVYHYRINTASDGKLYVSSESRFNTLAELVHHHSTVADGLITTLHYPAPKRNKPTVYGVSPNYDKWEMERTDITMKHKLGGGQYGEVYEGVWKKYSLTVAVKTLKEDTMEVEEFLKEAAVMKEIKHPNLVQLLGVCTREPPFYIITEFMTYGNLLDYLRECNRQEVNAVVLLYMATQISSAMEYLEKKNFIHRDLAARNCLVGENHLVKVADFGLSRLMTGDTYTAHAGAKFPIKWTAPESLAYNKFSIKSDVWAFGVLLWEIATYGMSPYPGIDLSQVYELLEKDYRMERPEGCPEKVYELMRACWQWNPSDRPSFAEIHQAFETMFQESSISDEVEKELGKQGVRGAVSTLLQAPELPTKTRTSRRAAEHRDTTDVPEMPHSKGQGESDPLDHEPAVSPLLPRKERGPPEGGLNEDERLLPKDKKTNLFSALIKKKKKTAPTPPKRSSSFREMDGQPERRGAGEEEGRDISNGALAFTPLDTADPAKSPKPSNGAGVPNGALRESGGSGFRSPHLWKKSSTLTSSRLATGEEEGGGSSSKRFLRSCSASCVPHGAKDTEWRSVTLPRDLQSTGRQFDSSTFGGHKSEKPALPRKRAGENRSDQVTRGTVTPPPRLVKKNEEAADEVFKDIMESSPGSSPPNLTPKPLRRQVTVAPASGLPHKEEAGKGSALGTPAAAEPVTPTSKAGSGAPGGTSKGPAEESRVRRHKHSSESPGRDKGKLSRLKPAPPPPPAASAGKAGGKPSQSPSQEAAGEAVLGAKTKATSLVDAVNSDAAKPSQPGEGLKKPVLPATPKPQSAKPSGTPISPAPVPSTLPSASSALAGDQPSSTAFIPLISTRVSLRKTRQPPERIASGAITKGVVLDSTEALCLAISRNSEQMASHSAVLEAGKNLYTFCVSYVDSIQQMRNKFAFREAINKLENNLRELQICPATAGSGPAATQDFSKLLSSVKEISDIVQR
Chain of MAP/microtubule affinity-regulating kinase 3 (Homo sapiens) (P27448 whole entry, looked up): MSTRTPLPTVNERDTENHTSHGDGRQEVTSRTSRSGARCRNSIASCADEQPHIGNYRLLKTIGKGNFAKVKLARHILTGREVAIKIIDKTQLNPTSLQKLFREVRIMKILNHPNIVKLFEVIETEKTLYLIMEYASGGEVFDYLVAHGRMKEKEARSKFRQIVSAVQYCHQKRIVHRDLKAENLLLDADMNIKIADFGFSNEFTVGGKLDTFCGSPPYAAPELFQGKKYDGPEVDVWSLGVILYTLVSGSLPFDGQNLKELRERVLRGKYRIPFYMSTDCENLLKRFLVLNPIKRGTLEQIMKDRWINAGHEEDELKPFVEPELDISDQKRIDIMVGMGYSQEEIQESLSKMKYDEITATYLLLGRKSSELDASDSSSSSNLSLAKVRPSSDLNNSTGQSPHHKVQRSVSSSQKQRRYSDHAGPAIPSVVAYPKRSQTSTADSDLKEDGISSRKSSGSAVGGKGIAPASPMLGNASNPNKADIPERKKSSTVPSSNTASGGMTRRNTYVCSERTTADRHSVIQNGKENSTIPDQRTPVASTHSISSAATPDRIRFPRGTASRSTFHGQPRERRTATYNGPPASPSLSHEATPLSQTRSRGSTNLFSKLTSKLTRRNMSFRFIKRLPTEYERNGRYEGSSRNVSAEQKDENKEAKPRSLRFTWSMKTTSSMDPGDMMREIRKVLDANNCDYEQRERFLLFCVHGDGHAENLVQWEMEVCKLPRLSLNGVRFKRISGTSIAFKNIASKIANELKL
Chain of Ephrin type-A receptor 7 (Homo sapiens) (Q15375 28-998 limits assumed): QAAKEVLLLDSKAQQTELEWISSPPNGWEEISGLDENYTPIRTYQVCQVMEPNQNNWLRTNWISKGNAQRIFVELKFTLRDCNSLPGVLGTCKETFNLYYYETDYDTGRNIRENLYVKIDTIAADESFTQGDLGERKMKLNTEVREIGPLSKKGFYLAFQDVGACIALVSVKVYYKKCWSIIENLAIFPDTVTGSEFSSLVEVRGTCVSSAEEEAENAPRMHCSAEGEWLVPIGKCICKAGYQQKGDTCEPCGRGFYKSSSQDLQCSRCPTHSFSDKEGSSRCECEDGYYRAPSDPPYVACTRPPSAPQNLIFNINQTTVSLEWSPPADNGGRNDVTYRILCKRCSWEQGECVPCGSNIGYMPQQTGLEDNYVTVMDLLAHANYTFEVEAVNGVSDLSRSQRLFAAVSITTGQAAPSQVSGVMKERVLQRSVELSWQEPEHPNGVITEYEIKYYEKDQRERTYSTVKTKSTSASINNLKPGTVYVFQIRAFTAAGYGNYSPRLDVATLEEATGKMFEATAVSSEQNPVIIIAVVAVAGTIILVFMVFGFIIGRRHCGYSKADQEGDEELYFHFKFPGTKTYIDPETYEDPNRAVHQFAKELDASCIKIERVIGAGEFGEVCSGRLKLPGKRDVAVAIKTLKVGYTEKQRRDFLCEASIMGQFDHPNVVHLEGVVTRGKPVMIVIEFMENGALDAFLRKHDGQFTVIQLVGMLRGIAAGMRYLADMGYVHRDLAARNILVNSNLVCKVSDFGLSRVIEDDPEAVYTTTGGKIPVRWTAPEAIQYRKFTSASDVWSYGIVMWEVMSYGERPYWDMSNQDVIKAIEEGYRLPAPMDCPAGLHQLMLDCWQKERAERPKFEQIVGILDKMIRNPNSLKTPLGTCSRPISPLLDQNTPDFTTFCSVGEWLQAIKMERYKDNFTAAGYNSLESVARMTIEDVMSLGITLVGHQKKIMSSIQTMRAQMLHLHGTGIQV
Chain of Sodium-dependent serotonin transporter (Homo sapiens) (P31645 whole entry, looked up): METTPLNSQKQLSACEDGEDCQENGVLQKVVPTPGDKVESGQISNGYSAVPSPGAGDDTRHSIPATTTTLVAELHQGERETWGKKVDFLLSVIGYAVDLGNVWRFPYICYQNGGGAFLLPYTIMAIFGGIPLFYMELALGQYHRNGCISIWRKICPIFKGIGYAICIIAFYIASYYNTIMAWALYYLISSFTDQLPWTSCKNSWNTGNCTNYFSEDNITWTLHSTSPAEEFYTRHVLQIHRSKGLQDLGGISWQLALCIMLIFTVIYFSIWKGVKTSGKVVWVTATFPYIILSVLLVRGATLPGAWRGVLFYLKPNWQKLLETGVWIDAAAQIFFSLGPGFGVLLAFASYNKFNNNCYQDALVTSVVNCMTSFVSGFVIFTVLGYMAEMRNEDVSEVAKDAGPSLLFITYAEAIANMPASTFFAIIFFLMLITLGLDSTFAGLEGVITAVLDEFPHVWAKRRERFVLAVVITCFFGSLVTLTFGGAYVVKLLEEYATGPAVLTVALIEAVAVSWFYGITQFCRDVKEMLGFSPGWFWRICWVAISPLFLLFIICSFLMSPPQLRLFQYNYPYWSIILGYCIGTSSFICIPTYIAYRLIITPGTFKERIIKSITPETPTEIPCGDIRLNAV

As to `CCC[C@H]1CNCc2c1[nH]c(=O)c(C#N)c2N1CCC2(CC1)CC2`, the inhibition was -9.99% in test [1]; 12.3% in test [2]; 7.4% in [3]; -2.37% in [6]; 6.23% in [7]. For the same molecule, the delta Tm Staurosporine positive control worked out at 15.9 in test [4]; 8.44 in test [5]; 17.5 in test [8]; 12.1 in test [9]; 5.62 in test [10]; 9.22 in test [11]. Also, the ΔTm in test [4] is -0.175; in [5], 0.111; in test [8], -0.331; in [9] it was -0.592; in test [10], 0.0299; in test [11] it was -0.11.

For the molecule `CCC[C@@H]1CNCc2c1[nH]c(=O)c(C#N)c2N1CCC2(CC1)CC2`, the inhibition in test [1] was 3.91%; in test [2] it was -9.68%; in test [3], 5.44%; in [6] it was 11%; in test [7] it was -1.15%. Also, the delta Tm Staurosporine positive control in test [4] amounted to 15.9; in test [5], 8.44; in [8], 17.5; in [9], 12.1; in test [10], 5.62; in [11], 9.22. Moreover, the ΔTm is 0.243 in test [4]; 0.0781 in test [5]; -0.214 in test [8]; -0.583 in test [9]; 0.00973 in test [10]; -0.389 in test [11].

One may read the inhibition as the relative decrease from the control value, in per cent.
